Measured values: the kinase profiling compilation of Christmann-Franck et al. (2016)

Key:
Assay in all cases: radiometric filter-binding kinase assay, Kinase HotSpot
Settings in all cases: compound 0.5 µM; ATP 10 µM
GSG2 (human) = GSG2 (human) (UniProt Q8TF76)
MAP3K8 (human) = MAP3K8 (human) (UniProt P41279)
PNCK (human) = PNCK (human) (UniProt Q6P2M8)
CAMK1G (human) = CAMK1G (human) (UniProt Q96NX5)
RIPK2 (human) = RIPK2 (human) (UniProt O43353)
PBK (human) = PBK (human) (UniProt Q96KB5)
CSNK2A1 (human) = CSNK2A1 (human) (UniProt P68400)
NEK3 (human) = NEK3 (human) (UniProt P51956)
MAP3K9 (human) = MAP3K9 (human) (UniProt P80192)
PDGFRA (human) = PDGFRA (human) (UniProt P16234)
PLK2 (human) = PLK2 (human) (UniProt Q9NYY3)
BMX (human) = BMX (human) (UniProt P51813)
TEK (human) = TEK (human) (UniProt Q02763)
PRKCG (human) = PRKCG (human) (UniProt P05129)
TXK (human) = TXK (human) (UniProt P42681)
DAPK3 (human) = DAPK3 (human) (UniProt O43293)
SRPK2 (human) = SRPK2 (human) (UniProt P78362)
ADRBK2 (human) = ADRBK2 (human) (UniProt P35626)
RPS6KA4 KD2 (human) = RPS6KA4 KD2 (human) (UniProt O75676)
TAOK2 (human) = TAOK2 (human) (UniProt Q9UL54)
IKBKB (human) = IKBKB (human) (UniProt O14920)
NTRK3 (human) = NTRK3 (human) (UniProt Q16288)
ERBB4 (human) = ERBB4 (human) (UniProt Q15303)
MAP3K10 (human) = MAP3K10 (human) (UniProt Q02779)
MARK3 (human) = MARK3 (human) (UniProt P27448)
ACVR1B (human) = ACVR1B (human) (UniProt P36896)
MAP3K3 (human) = MAP3K3 (human) (UniProt Q99759)
ABL1 (human) = ABL1 (human) (UniProt P00519)
CDK7 CCNH MNAT1 (human) = CDK7 CCNH MNAT1 (human) (UniProt P50613+P51948+P51946)
DDR2 (human) = DDR2 (human) (UniProt Q16832)
RET (human) = RET (human) (UniProt P07949)
MAP2K1 (human) = MAP2K1 (human) (UniProt Q02750)
DYRK1B (human) = DYRK1B (human) (UniProt Q9Y463)
CAMKK2 (human) = CAMKK2 (human) (UniProt Q96RR4)
ROS1 (human) = ROS1 (human) (UniProt P08922)
PRKD1 (human) = PRKD1 (human) (UniProt Q15139)
TNK2 (human) = TNK2 (human) (UniProt Q07912)
CSK (human) = CSK (human) (UniProt P41240)
CAMK2G (human) = CAMK2G (human) (UniProt Q13555)
EPHA1 (human) = EPHA1 (human) (UniProt P21709)
DYRK3 (human) = DYRK3 (human) (UniProt O43781)

Sequence of TXK (human) (P42681 whole entry, looked up): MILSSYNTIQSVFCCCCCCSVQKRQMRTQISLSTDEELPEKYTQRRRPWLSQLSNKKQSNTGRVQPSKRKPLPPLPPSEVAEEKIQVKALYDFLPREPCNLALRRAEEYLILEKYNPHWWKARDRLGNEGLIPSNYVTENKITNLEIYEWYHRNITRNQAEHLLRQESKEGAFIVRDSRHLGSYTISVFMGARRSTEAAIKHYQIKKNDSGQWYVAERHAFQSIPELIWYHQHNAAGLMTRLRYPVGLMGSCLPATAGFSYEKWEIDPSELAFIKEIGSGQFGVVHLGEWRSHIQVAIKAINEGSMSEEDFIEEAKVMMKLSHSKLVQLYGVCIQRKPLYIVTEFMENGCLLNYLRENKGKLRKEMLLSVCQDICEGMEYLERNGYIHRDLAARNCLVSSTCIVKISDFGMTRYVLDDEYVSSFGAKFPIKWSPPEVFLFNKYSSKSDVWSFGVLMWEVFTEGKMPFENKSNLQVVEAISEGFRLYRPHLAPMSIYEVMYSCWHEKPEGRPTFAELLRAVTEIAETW
Sequence of PBK (human) (Q96KB5 whole entry, looked up): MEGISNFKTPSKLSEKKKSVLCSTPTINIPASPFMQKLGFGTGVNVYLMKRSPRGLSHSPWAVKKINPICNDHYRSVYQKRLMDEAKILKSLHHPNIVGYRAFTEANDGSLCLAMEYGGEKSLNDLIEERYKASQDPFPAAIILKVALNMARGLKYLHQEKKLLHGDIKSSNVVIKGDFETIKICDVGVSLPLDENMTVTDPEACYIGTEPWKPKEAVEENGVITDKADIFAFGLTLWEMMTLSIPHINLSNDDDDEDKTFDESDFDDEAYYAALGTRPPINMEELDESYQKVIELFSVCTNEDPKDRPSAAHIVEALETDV
Sequence of DYRK1B (human) (Q9Y463 whole entry, looked up): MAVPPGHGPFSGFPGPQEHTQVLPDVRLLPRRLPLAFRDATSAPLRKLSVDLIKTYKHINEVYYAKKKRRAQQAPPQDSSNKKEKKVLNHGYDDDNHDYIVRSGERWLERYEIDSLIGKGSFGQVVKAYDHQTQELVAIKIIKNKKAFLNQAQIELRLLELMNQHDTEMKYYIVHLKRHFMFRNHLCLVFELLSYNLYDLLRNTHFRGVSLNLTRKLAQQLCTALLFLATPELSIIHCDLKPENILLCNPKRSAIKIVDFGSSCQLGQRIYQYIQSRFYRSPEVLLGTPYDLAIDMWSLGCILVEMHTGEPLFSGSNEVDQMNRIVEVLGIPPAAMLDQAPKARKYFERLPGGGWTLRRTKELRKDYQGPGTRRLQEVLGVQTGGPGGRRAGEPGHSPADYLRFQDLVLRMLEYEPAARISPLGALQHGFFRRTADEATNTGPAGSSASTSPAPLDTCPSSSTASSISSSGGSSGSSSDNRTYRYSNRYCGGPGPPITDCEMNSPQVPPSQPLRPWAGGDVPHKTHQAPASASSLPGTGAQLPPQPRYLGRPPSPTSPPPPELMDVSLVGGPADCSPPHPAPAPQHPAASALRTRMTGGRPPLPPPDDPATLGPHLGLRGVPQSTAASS
Sequence of BMX (human) (P51813 whole entry, looked up): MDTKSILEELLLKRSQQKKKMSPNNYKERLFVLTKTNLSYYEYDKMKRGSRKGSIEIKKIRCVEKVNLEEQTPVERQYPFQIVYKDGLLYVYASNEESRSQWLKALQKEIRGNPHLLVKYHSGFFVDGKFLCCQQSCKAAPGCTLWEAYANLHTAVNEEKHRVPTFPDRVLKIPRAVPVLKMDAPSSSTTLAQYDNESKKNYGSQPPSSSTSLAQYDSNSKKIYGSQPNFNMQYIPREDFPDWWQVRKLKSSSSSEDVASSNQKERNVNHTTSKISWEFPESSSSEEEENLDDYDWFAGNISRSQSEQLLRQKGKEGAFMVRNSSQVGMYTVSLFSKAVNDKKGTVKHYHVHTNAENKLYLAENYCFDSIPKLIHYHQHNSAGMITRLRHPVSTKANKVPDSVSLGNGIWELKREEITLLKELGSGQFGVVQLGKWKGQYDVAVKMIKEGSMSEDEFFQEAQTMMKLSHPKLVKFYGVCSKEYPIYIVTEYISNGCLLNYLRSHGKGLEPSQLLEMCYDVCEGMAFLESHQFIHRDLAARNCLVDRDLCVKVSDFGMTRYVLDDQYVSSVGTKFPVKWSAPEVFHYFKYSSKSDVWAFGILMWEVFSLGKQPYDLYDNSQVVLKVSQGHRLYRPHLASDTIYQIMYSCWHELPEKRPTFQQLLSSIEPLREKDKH
Sequence of DDR2 (human) (Q16832 whole entry, looked up): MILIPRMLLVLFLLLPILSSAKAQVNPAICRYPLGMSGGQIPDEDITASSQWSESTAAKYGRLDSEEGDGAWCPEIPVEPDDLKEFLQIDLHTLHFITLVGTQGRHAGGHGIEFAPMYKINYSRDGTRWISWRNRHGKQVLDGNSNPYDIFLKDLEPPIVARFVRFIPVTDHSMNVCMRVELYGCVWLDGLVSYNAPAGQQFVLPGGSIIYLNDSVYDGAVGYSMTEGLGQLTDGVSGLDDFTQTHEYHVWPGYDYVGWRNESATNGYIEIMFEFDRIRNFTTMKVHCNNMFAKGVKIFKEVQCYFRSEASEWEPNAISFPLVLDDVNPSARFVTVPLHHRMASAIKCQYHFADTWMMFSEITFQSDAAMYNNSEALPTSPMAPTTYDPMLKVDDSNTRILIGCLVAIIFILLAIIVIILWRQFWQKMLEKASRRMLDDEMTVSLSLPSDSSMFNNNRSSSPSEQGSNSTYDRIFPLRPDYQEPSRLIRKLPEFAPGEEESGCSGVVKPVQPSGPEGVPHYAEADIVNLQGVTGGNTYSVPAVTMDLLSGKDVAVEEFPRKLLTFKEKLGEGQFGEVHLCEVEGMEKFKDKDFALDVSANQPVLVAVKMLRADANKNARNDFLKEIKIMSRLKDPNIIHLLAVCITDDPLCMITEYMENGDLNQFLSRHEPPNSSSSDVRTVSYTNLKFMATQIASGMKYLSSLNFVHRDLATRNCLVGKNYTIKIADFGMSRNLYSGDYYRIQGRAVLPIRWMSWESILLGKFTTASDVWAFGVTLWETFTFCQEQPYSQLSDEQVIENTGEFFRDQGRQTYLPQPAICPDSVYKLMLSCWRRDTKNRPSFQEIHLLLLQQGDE
Sequence of PLK2 (human) (Q9NYY3 whole entry, looked up): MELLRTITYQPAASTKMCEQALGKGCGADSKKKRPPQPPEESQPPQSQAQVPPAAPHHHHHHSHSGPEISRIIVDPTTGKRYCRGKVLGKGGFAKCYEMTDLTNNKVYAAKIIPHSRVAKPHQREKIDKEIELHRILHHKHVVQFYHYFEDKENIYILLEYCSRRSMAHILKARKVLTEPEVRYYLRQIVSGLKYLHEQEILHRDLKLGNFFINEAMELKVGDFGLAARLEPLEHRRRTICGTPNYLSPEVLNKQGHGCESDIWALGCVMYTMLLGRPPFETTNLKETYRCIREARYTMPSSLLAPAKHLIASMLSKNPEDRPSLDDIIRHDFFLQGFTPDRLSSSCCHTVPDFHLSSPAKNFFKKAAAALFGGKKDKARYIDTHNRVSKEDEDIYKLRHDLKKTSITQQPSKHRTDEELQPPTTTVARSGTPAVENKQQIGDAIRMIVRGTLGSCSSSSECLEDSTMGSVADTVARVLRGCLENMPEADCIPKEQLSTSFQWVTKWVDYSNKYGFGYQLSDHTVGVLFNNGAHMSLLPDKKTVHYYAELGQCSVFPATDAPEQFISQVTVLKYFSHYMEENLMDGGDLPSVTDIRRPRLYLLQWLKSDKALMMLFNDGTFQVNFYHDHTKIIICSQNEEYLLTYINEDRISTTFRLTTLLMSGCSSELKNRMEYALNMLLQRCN
Sequence of NEK3 (human) (P51956 whole entry, looked up): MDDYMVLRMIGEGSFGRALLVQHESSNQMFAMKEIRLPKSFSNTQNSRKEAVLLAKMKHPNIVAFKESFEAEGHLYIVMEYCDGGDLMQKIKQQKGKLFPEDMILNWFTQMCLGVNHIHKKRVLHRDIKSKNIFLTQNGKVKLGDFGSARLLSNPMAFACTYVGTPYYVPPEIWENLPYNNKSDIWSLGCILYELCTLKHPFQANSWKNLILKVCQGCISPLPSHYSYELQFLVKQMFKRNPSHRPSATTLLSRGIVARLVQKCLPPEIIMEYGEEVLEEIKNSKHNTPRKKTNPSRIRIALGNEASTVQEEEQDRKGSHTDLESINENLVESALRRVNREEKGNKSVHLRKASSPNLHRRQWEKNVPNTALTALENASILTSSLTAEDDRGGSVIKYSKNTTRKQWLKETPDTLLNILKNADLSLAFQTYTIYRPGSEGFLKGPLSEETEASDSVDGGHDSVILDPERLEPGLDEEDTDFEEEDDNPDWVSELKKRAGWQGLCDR

## O=C(c1cc2cc(O)ccc2[nH]1)c1cc2cc(O)ccc2[nH]1
GSG2 (human)
  residual activity: 34.8%
MAP3K8 (human)
  residual activity: 93%
PNCK (human)
  residual activity: 105%
CAMK1G (human)
  residual activity: 101%
RIPK2 (human)
  residual activity: 37.8%
PBK (human)
  residual activity: 100%
CSNK2A1 (human)
  residual activity: 88.7%
NEK3 (human)
  residual activity: 111%
MAP3K9 (human)
  residual activity: 42.6%
PDGFRA (human)
  residual activity: 65.3%
PLK2 (human)
  residual activity: 102%
BMX (human)
  residual activity: 80.6%
TEK (human)
  residual activity: 104%
PRKCG (human)
  residual activity: 85.1%
TXK (human)
  residual activity: 74.9%
DAPK3 (human)
  residual activity: 104%
SRPK2 (human)
  residual activity: 97.1%
ADRBK2 (human)
  residual activity: 102%
RPS6KA4 KD2 (human)
  residual activity: 81.3%
TAOK2 (human)
  residual activity: 99%
IKBKB (human)
  residual activity: 91.3%
NTRK3 (human)
  residual activity: 13.4%
ERBB4 (human)
  residual activity: 102%
MAP3K10 (human)
  residual activity: 91.7%
MARK3 (human)
  residual activity: 84.4%
ACVR1B (human)
  residual activity: 98.9%
MAP3K3 (human)
  residual activity: 96%
ABL1 (human)
  residual activity: 27.8%
CDK7 CCNH MNAT1 (human)
  residual activity: 93.5%
DDR2 (human)
  residual activity: 95.7%
RET (human)
  residual activity: 8.98%
MAP2K1 (human)
  residual activity: 103%
DYRK1B (human)
  residual activity: 92%
CAMKK2 (human)
  residual activity: 84.2%
ROS1 (human)
  residual activity: 105%
PRKD1 (human)
  residual activity: 58.5%
TNK2 (human)
  residual activity: 90.6%
CSK (human)
  residual activity: 106%
CAMK2G (human)
  residual activity: 89.5%
EPHA1 (human)
  residual activity: 81.1%
DYRK3 (human)
  residual activity: 115%

## O=C1c2ccccc2-c2nc3nnnn3nc21
GSG2 (human)
  residual activity: 79.2%
MAP3K8 (human)
  residual activity: 75.9%
PNCK (human)
  residual activity: 83.4%
CAMK1G (human)
  residual activity: 28.5%
RIPK2 (human)
  residual activity: 101%
PBK (human)
  residual activity: 64.5%
CSNK2A1 (human)
  residual activity: 101%
NEK3 (human)
  residual activity: 111%
MAP3K9 (human)
  residual activity: 63.3%
PDGFRA (human)
  residual activity: 44.1%
PLK2 (human)
  residual activity: 37.3%
BMX (human)
  residual activity: 79%
TEK (human)
  residual activity: 4.27%
PRKCG (human)
  residual activity: 59.3%
TXK (human)
  residual activity: 90.8%
DAPK3 (human)
  residual activity: 96.2%
SRPK2 (human)
  residual activity: 95.8%
ADRBK2 (human)
  residual activity: 106%
RPS6KA4 KD2 (human)
  residual activity: 72.2%
TAOK2 (human)
  residual activity: 91.9%
IKBKB (human)
  residual activity: 73.4%
NTRK3 (human)
  residual activity: 87.2%
ERBB4 (human)
  residual activity: 50.2%
MAP3K10 (human)
  residual activity: 94.6%
MARK3 (human)
  residual activity: 78.1%
ACVR1B (human)
  residual activity: 113%
MAP3K3 (human)
  residual activity: 134%
ABL1 (human)
  residual activity: 89.7%
CDK7 CCNH MNAT1 (human)
  residual activity: 94.1%
DDR2 (human)
  residual activity: 58.7%
RET (human)
  residual activity: 101%
MAP2K1 (human)
  residual activity: 88.7%
DYRK1B (human)
  residual activity: 81%
CAMKK2 (human)
  residual activity: 76.9%
ROS1 (human)
  residual activity: 91.1%
PRKD1 (human)
  residual activity: 86.5%
TNK2 (human)
  residual activity: 44.9%
CSK (human)
  residual activity: 84.8%
CAMK2G (human)
  residual activity: 91.1%
EPHA1 (human)
  residual activity: 73.1%
DYRK3 (human)
  residual activity: 88.6%
